Test results taken from patent US7595327B2, “Beta-sulfonamide hydroxamic acid inhibitors of tace/matrix metalloproteinase” (priority 2005, dated 2009).

Assays:
[1] = molecular target: T1, TACE (catalytic domain of the recombinant TACE protein) (Homo sapiens, UniProt P78536); assay: TACE FRET assay using TACE Cat; assay type: biochemical; conditions: FRET, pro-TNF-α substrate peptide; read-out: TACE IC50
T1 construct: The catalytic domain of the recombinant TACE protein was expressed and purified; made in house
T1 sequence (P78536 223-474 limits assumed): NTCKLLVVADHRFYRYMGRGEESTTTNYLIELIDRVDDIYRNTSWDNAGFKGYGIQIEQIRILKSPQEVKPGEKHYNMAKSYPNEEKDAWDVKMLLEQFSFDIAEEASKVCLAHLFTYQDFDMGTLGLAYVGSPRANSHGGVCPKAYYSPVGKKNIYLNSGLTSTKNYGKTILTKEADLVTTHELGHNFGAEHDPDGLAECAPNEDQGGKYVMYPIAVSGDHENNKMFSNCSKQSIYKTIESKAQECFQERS
Method in brief: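 Recombinant TACE catalytic domain (1 ug/ml) pre-incubated 10 min at room temperature with inhibitor in 50 mM Tris-HCl pH 7.4, 25 mM NaCl, 4% glycerol, 0.005% Brij 35; Abz/Dpa pro-TNF-α peptide substrate added, fluorescence (Ex 320/Em 420) followed 10 min; IC50 from initial rates by Hill fit.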

[2] = molecular target: T2, recombinant human catalytic domain of MMP-1 (Homo sapiens, UniProt P03956); assay: In-vitro fluorescence assay of MMP-1 activity; assay type: biochemical
T2 construct: The source of enzyme in the assay was the recombinant human catalytic domain of MMP-1
T2 sequence (P03956 100-269 limits assumed): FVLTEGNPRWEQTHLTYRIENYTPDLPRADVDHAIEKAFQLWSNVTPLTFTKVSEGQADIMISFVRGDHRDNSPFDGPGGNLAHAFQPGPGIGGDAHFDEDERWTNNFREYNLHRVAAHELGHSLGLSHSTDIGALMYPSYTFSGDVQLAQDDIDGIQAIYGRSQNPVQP
Experimental: A continuous assay was used in which the substrate is a synthetic peptide containing a fluorescent group (7-methoxycoumarin; Mca) that is quenched by energy transfer to a 2,4-dinitrophenyl group. […] The substrate used was Mca-PQGL-(3-[2,4-dinitrophenyl]-L-2,3-diaminopropionyl)-AR-OH (denoted as Wammp-5, custom synthesized by AnaSpec, Inc.). The assay buffer consisted of 50 mM Hepes (pH 7.4), 100 mM NaCl, 5 mM CaCI2, and 0.005% Brij-35. Each well of black polystyrene 96-well plates contained a 200 μL reaction mixture consisting of assay buffer, purified MMP (final concentration of 25 ng/ml, prepared by diluting with the assay buffer), and varied concentrations of inhibitor (prepared by serially diluting a given inhibitor in DMSO in 96-well polypropylene plate). […] The enzymatic reactions were initiated by adding the substrate to a final concentration of 20 μM, and mixing 10 times with a pipette. The final DMSO concentration in the assay was 6.0%.
Plots of the inhibitor concentration vs. the percent inhibition were fit to the following equation: y=(a−d)/[1+(x/c)^b]+d, a general sigmoidal curve with Hill slope, a to d. x is the inhibitor concentration under test. y is the percent inhibition. a is the limiting response as x approaches zero. As x increases without bound, y tends toward its limit d. c is the inflection point (IC50) for the curve. That is, y is halfway between the lower and upper asymptotes when x=c. b is the slope factor or Hill coefficient.

recombinant human MMP-2 = molecular target: T3, recombinant human MMP-2 (Homo sapiens, UniProt P08253); assay: In-vitro fluorescence assay of MMP-2 activity; assay type: biochemical
T3 sequence (P08253 110-660): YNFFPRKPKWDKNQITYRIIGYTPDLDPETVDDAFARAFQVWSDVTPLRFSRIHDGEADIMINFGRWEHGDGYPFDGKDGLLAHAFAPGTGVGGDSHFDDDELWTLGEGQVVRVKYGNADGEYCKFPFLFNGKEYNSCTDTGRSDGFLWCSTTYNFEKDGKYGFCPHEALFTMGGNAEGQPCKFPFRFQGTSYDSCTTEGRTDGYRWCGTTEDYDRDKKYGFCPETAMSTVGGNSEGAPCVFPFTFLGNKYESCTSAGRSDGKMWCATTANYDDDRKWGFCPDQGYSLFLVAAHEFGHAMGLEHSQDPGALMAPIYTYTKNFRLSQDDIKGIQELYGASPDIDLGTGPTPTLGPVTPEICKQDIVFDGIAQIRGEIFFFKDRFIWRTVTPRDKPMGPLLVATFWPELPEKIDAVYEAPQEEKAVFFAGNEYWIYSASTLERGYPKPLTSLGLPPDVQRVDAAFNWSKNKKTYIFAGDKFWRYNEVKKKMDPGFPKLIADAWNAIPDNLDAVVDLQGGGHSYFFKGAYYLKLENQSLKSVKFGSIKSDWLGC

[3] = tested on: LPS-induced TNF-α secretion in human whole blood; assay: Human whole blood assay for LPS-induced TNF-α secretion; assay type: cell-based; conditions: Homo sapiens, LPS 100 ng/ml, read-out: TNF Secretion HWB IC50
Method in brief: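 Fresh blood from healthy volunteers pre-incubated 1 h at 37° C with compound (final DMSO <0.2%), then stimulated with 100 ng/ml LPS for 4 h or overnight at 37° C with rotation. Supernatant TNF-α measured by ELISA; percent inhibition and IC50 derived by curve fitting.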

recombinant human MMP-7 = molecular target: T4, recombinant human MMP-7 (Homo sapiens, UniProt P09237); assay: In-vitro fluorescence assay of MMP-7 activity; assay type: biochemical
T4 construct: Active, recombinant human MMP-7 was purchased from Calbiochem (catalog #444270; expressed in E. coli, 19 kDa); purchased Calbiochem 444270; host or cells: E. coli
T4 sequence (P09237 95-267): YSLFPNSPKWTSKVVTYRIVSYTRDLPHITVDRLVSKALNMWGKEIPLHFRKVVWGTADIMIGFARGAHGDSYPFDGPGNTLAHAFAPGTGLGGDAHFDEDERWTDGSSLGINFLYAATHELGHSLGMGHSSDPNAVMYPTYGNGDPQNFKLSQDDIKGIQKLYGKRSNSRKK
Experimental: The method was similar to that for the determination of MMP-1 activity, described above, with the following differences. Active, recombinant human MMP-7 was purchased from Calbiochem (catalog #444270; expressed in E. coli, 19 kDa). […] The concentration of the substrate stock was spectrophotometrically determined using the extinction coefficient at 410 nm of 7500 M^−1 cm^−1. The assay buffer (pH 7.4) consisted of 50 mM Hepes, 100 mM NaCl, 5 mM CaCI2, and 0.005% Brij-35. […] The plates were then incubated at room temperature for 30 minutes. The enzymatic reactions were initiated by adding substrate to a final concentration of 15 μM and were mixed by pipelting up and down. The final DMSO concentration in the assay was 10% and the final, total assay volume was 200 μl. […]

CCNC(=O)N1C[C@H](C(=O)NO)[C@H](NS(=O)(=O)c2ccc(OCc3cc(C)nc4ccccc34)cc2)C1 (relative stereo) [Example 23, cis-1-Ethyl-N-hydroxy-4-[({4-[(2-methylquinolin-4-yl)methoxy]phenyl}sulfonyl)amino]pyrrolidine-1,3-dicarboxamide]
IC50 [1]: 1.3 nM | IC50 [2]: > 16700 nM | IC50 (recombinant human MMP-2): > 16700 nM | IC50 [3]: 280 nM | IC50 (recombinant human MMP-7): 1170 nM

Cc1cc(COc2ccc(S(=O)(=O)N[C@@H]3CCC[C@@H]3C(=O)NO)cc2)c2ccccc2n1 [Example 13, (1S,2R)-N-Hydroxy-2-[({4-[(2-methylquinolin-4-yl)methoxy]phenyl}sulfonyl)amino]cyclopentanecarboxamide]
IC50 [1]: < 0.6 nM | IC50 [2]: > 16700 nM | IC50 (recombinant human MMP-2): > 10000 nM | IC50 [3]: 250 nM | IC50 (recombinant human MMP-7): 444 nM

Cc1cc(COc2ccc(S(=O)(=O)N[C@H]3COC[C@H]3C(=O)NO)cc2)c2ccccc2n1 (stereo in doubt) [Example 26, (3S,4R)-4-[4-(2-Methyl-quinolin-4-ylmethoxy)-benzenesulfonylamino]-tetrahydro-furan-3-carboxylic acid hydroxyamide]
IC50 [1]: 0.6 nM | IC50 [2]: > 16700 nM | IC50 (recombinant human MMP-2): > 16700 nM | IC50 [3]: 200 nM | IC50 (recombinant human MMP-7): 827 nM

Cc1cc(COc2ccc(S(=O)(=O)N[C@@H]3CN(C(=O)NC(C)(C)C)CC[C@@H]3C(=O)NO)cc2)c2ccccc2n1 [Example 35, 3-[4-(2-Methyl-quinolin4-ylmethoxy)-benzenesulfonylamino]-piperidine-1,4-dicarboxylic acid 1-tert-butylamide 4-hydroxyamide]
IC50 [1]: 1.4 nM | IC50 [2]: > 16700 nM | IC50 (recombinant human MMP-2): > 16700 nM | IC50 [3]: 800 nM | IC50 (recombinant human MMP-7): 4620 nM

Cc1cc(COc2ccc(S(=O)(=O)N[C@@H]3CN(C=O)C[C@@H]3C(=O)NO)cc2)c2ccccc2n1 (relative stereo) [Example 20, cis-1-Formyl-N-hydroxy-4-[({4-[(2-methylquinolin-4-yl)methoxy]phenyl}sulfonyl)amino]pyrrolidine-3-carboxamide]
IC50 [1]: 1.1 nM | IC50 [2]: > 16700 nM | IC50 (recombinant human MMP-2): > 10000 nM | IC50 [3]: 120 nM | IC50 (recombinant human MMP-7): 812 nM

Cc1cc(COc2ccc(S(=O)(=O)N[C@@H]3CN(S(C)(=O)=O)C[C@@H]3C(=O)NO)cc2)c2ccccc2n1 (relative stereo) [Example 17, cis-N-Hydroxy-4-[({4-[(2-methylquinolin-4-yl)methoxy]phenyl}sulfonyl)amino]-1-(methylsulfonyl) pyrrolidine-3-carboxamide]
IC50 [1]: 0.6 nM | IC50 [2]: > 16700 nM | IC50 (recombinant human MMP-2): > 10000 nM | IC50 [3]: 340 nM | IC50 (recombinant human MMP-7): 668 nM
